The values that follow come from paper PMC11375810, “Novel Diacyl-hydrazide Compounds as Potential Therapeutics for Visceral Leishmaniasis” (ACS Omega, 2024).

Like-named read-outs stand apart in the source and are kept apart here.

For data set [1], the system named is intracellular L. donovani in THP-1 macrophage host cells.
Data set [2] concerns THP-1 macrophages.
For data set [3], the system named is intracellular L. donovani in THP-1 macrophage host cells. Description: THP-1 macrophage infection assay: anti L. donovani activity. Particulars: for SI (CC50/IC50): THP-1 CC50 / L. donovani IC50; for L. donovani growth inhibitory activity (in words): L. donovani in THP-1 macrophages.
Data set [4] can be described thus: THP-1 macrophage infection assay: cytotoxicity to host cells. Particulars: human.
Data set [5] can be described thus: Metabolic stability of compound 1. It is filed as in vitro ADME. The text has this:
We first analyzed compound 1 for physicochemical parameters such as the molecular weight, cLogP, polar surface area, freely rotatable bonds, hydrogen bond donors and acceptors and solubility at pH 2 and 6.5, as well as metabolic stability to evaluate its drug-likeness (Table 1). […] These “drug-like” physicochemical properties and the good synthetic accessibility of the scaffold further supported exploring the compound’s SAR to reveal valuable insights and guidance for drug developers.

Data set [6] relates to L. donovani in infected macrophages. Further details: method as in PMID 25740547. Particulars: cited from earlier work.
The subject of data set [7] is L. donovani amastigote/macrophages. Also on record: method as in PMID 25740547. Particulars: GSK kinetoplastid high-throughput screen; cited from earlier work.
The subject of data set [8] is HepG2. Further details: method as in PMID 25740547. Particulars: GSK screen; read-out: CC50 against HepG2 cells; cited from earlier work.
Where [9] appears, read: Leishmania donovani, THP-1, read-out: IC50 (reduction of total number of parasites by 50%).

Usually IC50 stands for the concentration that gives 50% inhibition. Turning to “N′-(2-(Imidazole-2-yl)acetyl)quinoline-2-carbohydrazide [Compound 12]”, the “SI (CC50/IC50)” value in data set [1] is reported as 0.7. In data set [2], this compound gave a CC50 of 33 µM. In addition, the Complete parasite clearance in data set [3] (L. donovani in THP-1 macrophage host cells, 10-point curve, top 100 μM, duplicates, n = 1) is greater than 100 µM. In addition, in data set [3] (read-out: IC50 (reduction of total number of parasites by 50%), L. donovani in THP-1 macrophage host cells, 10-point curve, 2× serial dilution, top 100 μM, duplicates, n = 1), the IC50 was found to be 45 µM.
Consider `Cn1c(CC(=O)NNC(=O)c2ccc(-c3cccc(C#N)c3)cn2)nc2ccccc21` [Compound 17d, 5-(3-Cyanophenyl)-N′-(2-(1-methyl-1H-benzo[d]imidazole-2-yl)acetyl)picolinohydrazide], for which the IC50 in data set [3] (setting [9]) came to 1.4 µM. The “SI (CC50/IC50)” value in data set [3] is greater than 74. Besides, the CC50 at 72 h in data set [4] was greater than 100 µM.
`COc1cccc(-c2ccc(C(=O)NNC(=O)Cc3nc4ccccc4n3C)nc2)c1` [Compound 17g, 5-(3-Methoxyphenyl)-N′-(2-(1-methyl-1H-benzo[d]imidazole-2-yl)acetyl)picolinohydrazide]: the IC50 in data set [3] (setting [9]) worked out at 0.6 µM. Besides, the “SI (CC50/IC50)” value in data set [3] is given as greater than 172. The compound further registered a CC50 at 72 h in data set [4] greater than 100 µM.
As to `Cn1c(CC(=O)NNC(=O)c2ccc(-c3cccc(Cl)c3)cn2)nc2ccccc21` [Compound 17b, 5-(3-Chlorophenyl)-N′-(2-(1-methyl-1H-benzo[d]imidazole-2-yl)acetyl)picolinohydrazide], in data set [3] (setting [9]), the IC50 was found to be 1 µM. Further, in data set [3], the “SI (CC50/IC50)” value was found to be 94. For the same compound, the CC50 at 72 h in data set [4] turned out to be 94 µM.
The like results for `Cn1c(CC(=O)NNC(=O)c2ccccn2)nc2ccccc21` [Compound 13b, N′-(2-(1-Methyl-1H-benzo[d]imidazole-2-yl)acetyl)picolinohydrazide] were, in that order, 44 µM, 1.4 and 62 µM.
`Cn1c(CC(=O)NNC(=O)c2ccc3ccccc3c2)nc2ccccc21` [Compound 13a, N′-(2-(1-Methyl-1H-benzo[d]imidazole-2-yl)acetyl)-2-naphthohydrazide]: the “L. donovani growth inhibitory activity (in words)” value in data set [3] is given as “completely lost their L. donovani growth inhibitory activity”. The IC50 in data set [3] (setting [9]) was greater than 100 µM. Further, the CC50 at 72 h in data set [4] is greater than 100 µM.
Take `Cc1cccc(-c2ccc(C(=O)NNC(=O)Cc3nc4ccccc4n3C)nc2)c1` [Compound 17j, N′-(2-(1-Methyl-1H-benzo[d]imidazole-2-yl)acetyl)-5-(m-tolyl)picolinohydrazide]: the IC50 in data set [3] (setting [9]) was 0.3 µM. Moreover, the “SI (CC50/IC50)” value in data set [3] turned out to be 173. The CC50 at 72 h in data set [4] came out at 52 µM.
The like results for `COc1ccc(-c2ccc(C(=O)NNC(=O)Cc3nc4ccccc4n3C)nc2)cc1` [Compound 17h, 5-(4-Methoxyphenyl)-N′-(2-(1-methyl-1H-benzo[d]imidazole-2-yl)acetyl)picolinohydrazide] were, in that order, 0.7 µM, greater than 145 and greater than 100 µM.
The like results for `Cc1ccccc1-c1ccc(C(=O)NNC(=O)Cc2nc3ccccc3n2C)nc1` [Compound 17i, N′-(2-(1-Methyl-1H-benzo[d]imidazole-2-yl)acetyl)-5-(o-tolyl)picolinohydrazide] were, in that order, 0.4 µM, 168 and 67 µM.
For the compound `Cn1c(CC(=O)NNC(=O)c2cccc(-c3ccccc3)n2)nc2ccccc21` [Compound 13d, N′-(2-(1-Methyl-1H-benzo[d]imidazole-2-yl)acetyl)-6-phenylpicolinohydrazide], the IC50 in data set [3] (setting [9]) amounted to 20 µM. In data set [4], this compound came in with a CC50 at 72 h greater than 100 µM.
In the case of `O=C(Cc1nc2ccccc2s1)NNC(=O)c1ccc2ccccc2n1` [Compound 5b], the IC50 in data set [3] (setting [9]) is greater than 100 µM. In data set [4], this compound had a CC50 at 72 h greater than 100 µM.
`O=C(Cc1nc2ccccc2[nH]1)NNC(=O)c1ccc2ccccc2n1` [Compound 5a, N′-(2-(1H-Benzo[d]imidazole-2-yl)acetyl)quinoline-2-carbohydrazide]: in data set [3] (setting [9]), the IC50 amounted to 5.9 µM. In addition, in data set [3], the “SI (CC50/IC50)” value is reported as greater than 17. In data set [4], this compound gave a CC50 at 72 h greater than 100 µM.
Regarding `Cn1c(CC(=O)NNC(=O)c2ccccc2)nc2ccccc21` [Compound 13c, N′-(2-(1-Methyl-1H-benzo[d]imidazole-2-yl)acetyl)benzohydrazide], the “L. donovani growth inhibitory activity (in words)” value in data set [3] is “completely lost their L. donovani growth inhibitory activity”. Further, in data set [3] (setting [9]), the IC50 is greater than 100 µM. In addition, in data set [4], the CC50 at 72 h is greater than 100 µM.
Consider `Cn1c(CC(=O)NNC(=O)c2ccc(-c3ccc(C#N)cc3)cn2)nc2ccccc21` [Compound 17e, 5-(4-Cyanophenyl)-N′-(2-(1-methyl-1H-benzo[d]imidazole-2-yl)acetyl)picolinohydrazide], for which, in data set [3] (setting [9]), the IC50 is 0.8 µM. Further, the “SI (CC50/IC50)” value in data set [3] stood at 120. The compound also registered a CC50 at 72 h in data set [4] of 96 µM.
As to `Cn1c(CC(=O)NNC(=O)c2ccc3ccccc3n2)nc2ccccc21` [Compound 1, N′-(2-(1-Methyl-1H-benzo[d]imidazole-2-yl)acetyl)quinoline-2-carbohydrazide], the microsomal CLint in data set [5] (intrinsic clearance, read-out: metabolic stability Clint,in vitro) is 22 µL/min/mg. Moreover, the half-life in data set [5] (read-out: metabolic stability half-life t1/2) is 1.33 h. In addition, the “pIC50 L. donovani in infected macrophages” value in data set [6] (GSK kinetoplastid high-throughput screen) is roughly 5.9. Moreover, the IC50 in data set [6] (GSK screen, read-out: IC50 against L. donovani in infected macrophages) was roughly 1.3 µM; in data set [3] (setting [9]) it was 1.9 µM. Besides, in data set [6] (HepG2 CC50 / L. donovani IC50, GSK screen), the “therapeutic window CC50/IC50 (selectivity for the parasite)” value is reported as roughly 79. For the same compound, in data set [7], the “pIC50 L. donovani imaging: amastigote/macrophages” value is reported as 6.1. The CC50 in data set [8] was roughly 100 µM. In data set [3], the “SI (CC50/IC50)” value is reported as greater than 54. The compound further returned a CC50 at 72 h in data set [4] greater than 100 µM.
In the case of `Cc1ccc(-c2ccc(C(=O)NNC(=O)Cc3nc4ccccc4n3C)nc2)cc1` [Compound 17k, N′-(2-(1-Methyl-1H-benzo[d]imidazole-2-yl)acetyl)-5-(p-tolyl)picolinohydrazide], the IC50 in data set [3] (setting [9]) was found to be 0.2 µM. Also, the “SI (CC50/IC50)” value in data set [3] is listed as greater than 500. The CC50 at 72 h in data set [4] was greater than 100 µM.
Turning to `O=C(Cc1nc2ccccc2o1)NNC(=O)c1ccc2ccccc2n1` [Compound 5c, N′-(2-(Benzo[d]oxazol-2-yl)acetyl)quinoline-2-carbohydrazide], the IC50 in data set [3] (setting [9]) was determined as 49 µM. In addition, the “SI (CC50/IC50)” value in data set [3] turned out to be 1.1. The compound further showed a CC50 at 72 h in data set [4] of 54 µM.
The like results for `Cn1c(CC(=O)NNC(=O)c2ccc(-c3ccccc3)cn2)nc2ccccc21` [Compound 13e, N′-(2-(1-Methyl-1H-benzo[d]imidazole-2-yl)acetyl)-5-phenylpicolinohydrazide] were, in that order, 1.7 µM, 29 and 49 µM.
For the compound `Cn1c(CC(=O)NNC(=O)c2ccc(-c3ccc(Cl)cc3)cn2)nc2ccccc21` [Compound 17c, 5-(4-Chlorophenyl)-N′-(2-(1-methyl-1H-benzo[d]imidazole-2-yl)acetyl)picolinohydrazide], the IC50 in data set [3] (setting [9]) was determined as 1 µM. Also, the “SI (CC50/IC50)” value in data set [3] turned out to be 74. Besides, the CC50 at 72 h in data set [4] was found to be 73 µM.
The like results for `Cn1c(CC(=O)NNC(=O)c2ccc(-c3ccccc3Cl)cn2)nc2ccccc21` [Compound 17a, 5-(2-Chlorophenyl)-N′-(2-(1-methyl-1H-benzo[d]imidazole-2-yl)acetyl)picolinohydrazide] were, in that order, 1 µM, greater than 103 and greater than 100 µM.
For `COc1ccccc1-c1ccc(C(=O)NNC(=O)Cc2nc3ccccc3n2C)nc1` [Compound 17f, 5-(2-Methoxyphenyl)-N′-(2-(1-methyl-1H-benzo[d]imidazole-2-yl)acetyl)picolinohydrazide], the IC50 in data set [3] (setting [9]) came out at 0.6 µM. In addition, the “SI (CC50/IC50)” value in data set [3] is 32. The compound also gave a CC50 at 72 h in data set [4] of 19 µM.
